Measured values taken from patent publication US11505547B2, “Compounds” (STEP PHARMA S.A.S., priority 2017, dated 2022).

molecular target: T1, human CTPS1 (Homo sapiens, UniProt P17812); experiment: Human CTPS1 enzyme inhibition, ADP-Glo Max assay; format: biochemical; conditions: human full length CTPS1, read-out: CTPS1 (Human CTPS1 Enzyme Inhibition data grouped by potency range, IC50)
T1 construct: purchased Proteros biostructures GmbH
T1 sequence (P17812 1-591): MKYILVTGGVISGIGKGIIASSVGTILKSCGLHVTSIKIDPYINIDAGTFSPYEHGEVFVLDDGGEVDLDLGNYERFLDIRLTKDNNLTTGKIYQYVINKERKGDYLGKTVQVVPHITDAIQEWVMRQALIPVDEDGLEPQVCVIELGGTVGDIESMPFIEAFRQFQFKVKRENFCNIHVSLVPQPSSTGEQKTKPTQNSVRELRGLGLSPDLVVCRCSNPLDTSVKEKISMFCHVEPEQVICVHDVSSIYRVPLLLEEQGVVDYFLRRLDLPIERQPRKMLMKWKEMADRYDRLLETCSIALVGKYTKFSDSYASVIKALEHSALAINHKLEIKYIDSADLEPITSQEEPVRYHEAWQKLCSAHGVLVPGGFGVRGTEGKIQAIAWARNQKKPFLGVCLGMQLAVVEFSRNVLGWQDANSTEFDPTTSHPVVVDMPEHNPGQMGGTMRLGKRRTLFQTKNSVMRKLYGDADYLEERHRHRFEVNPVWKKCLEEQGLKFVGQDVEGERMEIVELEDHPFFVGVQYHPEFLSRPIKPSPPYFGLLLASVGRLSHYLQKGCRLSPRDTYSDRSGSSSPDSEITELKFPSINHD
Method: Biological Example 1—Human CTPS1 Enzyme Inhibition
The enzyme inhibitory activities of compounds invented against the target of interest were determined using the ADP-Glo™ Max assay (Promega, UK). Assays for human CTPS1 were performed in 1× assay buffer containing 50 mM Tris, 10 mM MgCl2, 0.01% Tween-20, pH to 8.0 accordingly. Finally, immediately before use, L-cysteine was added to the 1× assay buffer to a final concentration of 2 mM. All reagents are from Sigma-Aldrich unless specified otherwise. Human full length active C-terminal FLAG-Hiss-tag CTPS1 (UniProtKB-P17812, CTPS[1-591]-[…]) was obtained from Proteros biostructures GmbH.
3× human CTPS1 protein was prepared in 1× assay buffer to the final working protein concentration required for the reaction. A 2 uL volume per well of 3× human CTPS1 protein was mixed with 2 uL per well of 3× test compound (compound prepared in 1× assay buffer to an appropriate final 3× compound concentration respective to the concentration response curve designed for the compounds under test) for 10 minutes at 25° C. The enzymatic reaction was then initiated by addition of a 2 uL per well volume of a pre-mixed substrate mix (UltraPure ATP from ADP-Glo™ Max kit (0.31 mM), GTP (0.034 mM), UTP (0.48 mM) and L-glutamine (0.186 mM)) and the mixture was incubated for an appropriate amount of time within the determined linear phase of the reaction at 25° C. under sealed plate conditions with constant agitation at 500 revolutions per minute (rpm). ADP-GIo™ Max reagent was added for 60 minutes (6 uL per well) and subsequently ADP-Glo™ Max development reagent was added for 60 minutes (12 uL per well) prior to signal detection in a microplate reader (EnVision® Multilabel Reader, Perkin Elmer). Following each reagent addition over the course of the assay, assay plates were pulse centrifuged for 30 seconds at 500 rpm.
In all cases, the enzyme converts ATP to ADP and the ADP-Glo™ Max reagent subsequently depletes any remaining endogenous ATP in the reaction system. The ADP-Glo™ Max detection reagent converts the ADP that has been enzymatically produced back into ATP and using ATP as a substrate together with luciferin for the enzyme luciferase, light is generated which produces a detectable luminescence. […] The percentage inhibition produced by each concentration of compound was calculated using the equation shown below: […]
Percentage inhibition was then plotted against compound concentration, and the 50% inhibitory concentration (IC50) was determined from the resultant concentration-response curve.

SMILES	IC50 [µM]
Cc1cc(-c2cncc(C(F)(F)F)n2)ccc1C(=O)NC(C)(C)c1csc(NS(=O)(=O)C2CC2)n1 [Example R45, N-(2-(2-(cyclopropanesulfonamido)thiazol-4-yl)propan-2-yl)-2-methyl-4-(6-(trifluoromethyl)pyrazin-2-yl)benzamide]	0.1 to 1
CCOc1cncc(-c2ccc(C(=O)NC(C)(C)c3csc(NS(=O)(=O)C4CC4)n3)c(C)c2)n1 [Example R46, N-(2-(2-(cyclopropanesuIfonamido)thiazol-4-yl)propan-2-yl)-4-(6-ethoxypyrazin-2-yl)-2-methylbenzamide]	0.1 to 1
CCOc1cncc(-c2ccc(C(=O)NC(C)(C)c3csc(NS(=O)(=O)C4CC4)n3)c(C(F)(F)F)c2)n1 [Example R47, N-(2-(2-(cyclopropanesuIfonamido)thiazol-4-yl)propan-2-yl)-4-(6-ethoxypyrazin-2-yl)-2-(trifluoromethyl)benzamide]	0.1 to 1
COc1cc(-c2cncc(C(F)(F)F)n2)ccc1C(=O)NC(C)(C)c1csc(NS(=O)(=O)C2CC2)n1 [Example R48, N-(2-(2-(cyclopropanesuIfonamido)thiazol-4-yl)propan-2-yl)-2-methoxy-4-(6-(trifluoromethyl)pyrazin-2-yl)benzamide]	0.1 to 1
COc1cc(-c2cncc(Cl)n2)ccc1C(=O)NC(C)(C)c1csc(NS(=O)(=O)C2CC2)n1 [Example R49, 4-(6-chloropyrazin-2-yl)-N-(2-(2-(cyclopropanesulfonamido)thiazol-4-yl)propan-2-yl)-2-methoxybenzamide]	0.1 to 1
COc1cc(-c2cncc(C#N)n2)ccc1C(=O)NC(C)(C)c1csc(NS(=O)(=O)C2CC2)n1 [Example R50, 4-(6-cyanopyrazin-2-yl)-N-(2-(2-(cyclopropanesulfonamido)thiazol-4-yl)propan-2-yl)-2-methoxybenzamide]	1 to 10
CC(C)(NC(=O)c1ccc(-c2cncc(C(F)(F)F)n2)cc1)c1csc(NS(=O)(=O)C2CC2)n1 [Example R51, N-(2-(2-(cyclopropanesulfonamido)thiazol-4-yl)propan-2-yl)-4-(6-(trifluoromethyl)pyrazin-2-yl)benzamide]	< 0.1
CC(C)(NC(=O)c1ccc(-c2cncc(Cl)n2)cc1)c1csc(NS(=O)(=O)C2CC2)n1 [Example R52, 4-(6-chloropyrazin-2-yl)-N-(2-(2-(cyclopropanesulfonamido)thiazol-4-yl)propan-2-yl)benzamide]	< 0.1
Cc1cncc(-c2ccc(C(=O)NC(C)(C)c3csc(NS(=O)(=O)C4CC4)n3)cc2)n1 [Example R53, N-(2-(2-(cyclopropanesulfonamido)thiazol-4-yl)propan-2-yl)-4-(6-methylpyrazin-2-yl)benzamide]	0.1 to 1
COc1cncc(-c2ccc(C(=O)NC(C)(C)c3csc(NS(=O)(=O)C4CC4)n3)cc2)n1 [Example R54, N-(2-(2-(cyclopropanesulfonamido)thiazol-4-yl)propan-2-yl)-4-(6-methoxypyrazin-2-yl)benzamide]	< 0.1
CCOc1cncc(-c2ccc(C(=O)NC(C)(C)c3csc(NS(=O)(=O)C4CC4)n3)cc2)n1 [Example R55, N-(2-(2-(cyclopropanesulfonamido)thiazol-4-yl)propan-2-yl)-4-(6-ethoxypyrazin-2-yl)benzamide]	< 0.1
CC(C)Oc1cncc(-c2ccc(C(=O)NC(C)(C)c3csc(NS(=O)(=O)C4CC4)n3)cc2)n1 [Example R56, N-(2-(2-(cyclopropanesulfonamido)thiazol-4-yl)propan-2-yl)-4-(6-isopropoxypyrazin-2-yl)benzamide]	< 0.1
CC(C)(NC(=O)c1ccc(-c2cncc(OCC(F)(F)F)n2)cc1)c1csc(NS(=O)(=O)C2CC2)n1 [Example R57, N-(2-(2-(cyclopropanesuIfonamido)thiazol-4-yl)propan-2-yl)-4-(6-(2,2,2-trifluoroethoxy)pyrazin-2-yl)benzamide]	0.1 to 1
CC(C)(NC(=O)c1ccc(-c2cnccn2)cc1)c1csc(NS(=O)(=O)C2CC2)n1 [Example R58, N-(2-(2-(cyclopropanesulfonamido)thiazol-4-yl)propan-2-yl)-4-(pyrazin-2-yl)benzamide]	0.1 to 1
CCOc1cncc(-c2ccc(C(=O)NC(C)(C)c3nc(NS(=O)(=O)C4CC4)sc3C)nc2)n1 [Example R72, N-(2-(2-(cyclopropanesuIfonamido)-5-methylthiazol-4-yl)propan-2-yl)-5-(6-ethoxypyrazin-2-yl)picolinamide]	1 to 10
CCOc1cncc(-c2ccc(C(=O)NC(C)(C)c3nc(NS(=O)(=O)C4CC4)sc3Cl)nc2)n1 [Example R73, N-(2-(5-chloro-2-(cyclopropanesulfonamido)thiazol-4-yl)propan-2-yl)-5-(6-ethoxypyrazin-2-yl)picolinamide]	1 to 10
CCOc1cncc(-c2ccc(C(=O)NC(C)(C)c3nc(NS(=O)(=O)C4CC4)sc3C)c(F)c2)n1 [Example R74, N-(2-(2-(cyclopropanesulfonamido)-5-methylthiazol-4-yl)propan-2-yl)-4-(6-ethoxypyrazin-2-yl)-2-fluorobenzamide]	0.1 to 1
CCOc1cncc(-c2ccc(C(=O)NC(C)(C)c3nc(NS(=O)(=O)C4CC4)sc3Cl)c(F)c2)n1 [Example R75, N-(2-(5-chloro-2-(cyclopropanesulfonamido)thiazol-4-yl)propan-2-yl)-4-(6-ethoxypyrazin-2-yl)-2-fluorobenzamide]	0.1 to 1
Cc1cc(-c2cncc(C(F)(F)F)n2)ccc1C(=O)NC(C)(C)c1nc(NS(=O)(=O)C2CC2)sc1C [Example R76, N-(2-(2-(cyclopropanesuIfonamido)-5-methylthiazol-4-yl)propan-2-yl)-2-methyl-4-(6-(trifluoromethyl)pyrazin-2-yl)benzamide]	0.1 to 1
Cc1cc(-c2cncc(C(F)(F)F)n2)ccc1C(=O)NC(C)(C)c1nc(NS(=O)(=O)C2CC2)sc1Cl [Example R77, N-(2-(5-chloro-2-(cyclopropanesulfonamido)thiazol-4-yl)propan-2-yl)-2-methyl-4-(6-(trifluoromethyl)pyrazin-2-yl)benzamide]	1 to 10
Cc1sc(NS(=O)(=O)C2CC2)nc1C(C)(C)NC(=O)c1ccc(-c2cncc(C(F)(F)F)n2)cc1 [Example R78, N-(2-(2-(cyclopropanesuIfonamido)-5-methylthiazol-4-yl)propan-2-yl)-4-(6-(trifluoromethyl)pyrazin-2-yl)benzamide]	0.1 to 1
CC(C)(NC(=O)c1ccc(-c2cncc(C(F)(F)F)n2)cc1)c1nc(NS(=O)(=O)C2CC2)sc1Cl [Example R79, N-(2-(5-chloro-2-(cyclopropanesulfonamido)thiazol-4-yl)propan-2-yl)-4-(6-(trifluoromethyl)pyrazin-2-yl)benzamide]	0.1 to 1
CCOc1cncc(-c2ccc(C(=O)NC3(c4csc(NS(=O)(=O)C5CC5)n4)CC3)nc2)n1 [Example R80, N-(1-(2-(cyclopropanesulfonamido)thiazol-4-yl)cyclopropyl)-5-(6-ethoxypyrazin-2-yl)picolinamide]	< 0.1
O=C(NC1(c2csc(NS(=O)(=O)C3CC3)n2)CC1)c1ccc(-c2cccnc2)cc1 [Example R81, N-(1-(2-(cyclopropanesulfonamido)thiazol-4-yl)cyclopropyl)-4-(pyridin-3-yl)benzamide]	0.1 to 1
CCOc1cncc(-c2ccc(C(=O)NC3(c4csc(NS(=O)(=O)C5CC5)n4)CC3)c(F)c2)n1 [Example R82, N-(1-(2-(cyclopropanesulfonamido)thiazol-4-yl)cyclopropyl)-4-(6-ethoxypyrazin-2-yl)-2-fluorobenzamide]	< 0.1
